Experimental data reported in article PMC5706701, “Development of a homogenous high-throughput assay for inositol hexakisphosphate kinase 1 activity” (PLoS ONE, 2017).
Counter-ions that a name gives are not always drawn.

Biological target: T1, Human IP6K1 (Homo sapiens, UniProt Q92551)
T1 construct: GST (N, cleaved yes); made in house; host or cells: C43 E. coli, pGEX-6P-2
Assay: IP6K1 high-throughput screen of the Sigma LOPAC (ADP-Glo Max, single point);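 note: final compound concentration 10µM in 5% DMSO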
Assay type: biochemical

[1] = LOPAC single-point screen, ADP-Glo Max raw signal per well
[2] = LOPAC single-point screen, Z-score against plate average and StDev
[3] = LOPAC single-point screen, Z-score from raw signal with plate average and StDev
[4] = LOPAC single-point screen, ADP-Glo Max luminescence raw signal per well
[5] = LOPAC single-point screen, Z-score from plate average and StDev
[6] = LOPAC single-point screen, Z-score relative to plate average and StDev
[7] = Sigma LOPAC single-point screen, ADP-Glo Max raw signal per well
[8] = Sigma LOPAC single-point screen, Z-score from plate average and StDev

T1 sequence (Q92551 whole entry): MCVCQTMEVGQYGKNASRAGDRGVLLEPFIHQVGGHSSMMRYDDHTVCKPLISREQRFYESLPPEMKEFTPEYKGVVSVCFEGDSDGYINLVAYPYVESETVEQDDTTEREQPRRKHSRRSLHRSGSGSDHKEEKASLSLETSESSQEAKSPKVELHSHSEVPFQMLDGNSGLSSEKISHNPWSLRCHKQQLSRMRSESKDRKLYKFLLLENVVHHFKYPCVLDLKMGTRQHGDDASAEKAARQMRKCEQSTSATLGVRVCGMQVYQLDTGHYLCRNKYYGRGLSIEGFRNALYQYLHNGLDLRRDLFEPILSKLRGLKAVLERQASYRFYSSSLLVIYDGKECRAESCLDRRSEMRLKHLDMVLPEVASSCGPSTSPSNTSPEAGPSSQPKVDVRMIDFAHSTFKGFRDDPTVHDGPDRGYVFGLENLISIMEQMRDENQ

O=S(=O)(c1cccc2c(Cl)cccc12)N1CCCNCC1 [ML-9]
Raw Signal [1]: 57828
Z-score [2]: -0.01499

CCCOC(=O)c1c(-c2ccccc2)nc(CC)c(C(=O)SCC)c1CCC [MRS 1523]
Raw Signal [1]: 53053
Z-score [3]: -0.2252

CCCn1c(=O)c2[nH]c(-c3ccc(OCC(=O)Nc4ccc(C#N)cc4)cc3)nc2n(CCC)c1=O [MRS 1754]
Raw Signal [4]: 66198
Z-score [5]: 1.983

C#CCN1C(C)=C(C(=O)OC)C(c2cccc([N+](=O)[O-])c2)C(C(=O)OCC)=C1C (centres unmarked) [MRS 1845]
Raw Signal [1]: 54765
Z-score [2]: 0.06242

Cc1nc(N=Nc2ccc(C(=O)O)cc2)c(COP(=O)(O)O)c(C=O)c1O [MRS 2159]
Raw Signal [4]: 51283
Z-score [6]: -0.5226

CNc1ncnc2c1ncn2[C@H]1C[C@H](OP(=O)(O)O)[C@@H](COP(=O)(O)O)O1 [MRS 2179]
Raw Signal [4]: 51414
Z-score [6]: -0.5006

CNCCCC12CCC(c3ccccc31)c1ccccc12 [Maprotiline hydrochloride]
Raw Signal [1]: 54786
Z-score [2]: 0.06595

C[N+](C)(C)CC#CCOC(=O)Nc1cccc(Cl)c1.[Cl-] [McN-A-343]
Raw Signal [1]: 55957
Z-score [3]: -0.3445

CN(N=O)c1ccc(O)c(O)c1 [Me-3,4-dephostatin]
Raw Signal [4]: 32245
Z-score [6]: -3.722

CNC1(C)C2CCC(C2)C1(C)C (centres unmarked) [Mecamylamine hydrochloride]
Raw Signal [1]: 55214
Z-score [2]: 0.1379

Cc1ccc(Cl)c(Nc2ccccc2C(=O)O)c1Cl [Meclofenamic acid sodium]
Raw Signal [7]: 59966
Z-score [8]: 0.9363

COc1ccc2[nH]cc(CCNC(C)=O)c2c1 [Melatonin]
Raw Signal [1]: 53452
Z-score [3]: -0.1582

Cc1cnc(NC(=O)C2=C(O)c3ccccc3S(=O)(=O)N2C)s1 [Meloxicam sodium]
Raw Signal [1]: 55155
Z-score [2]: 0.128

N[C@@H](Cc1ccc(N(CCCl)CCCl)cc1)C(=O)O [Melphalan]
Raw Signal [7]: 56974
Z-score [8]: 0.4336

CC12CC3CC(C)(C1)CC(N)(C3)C2 [Memantine hydrochloride]
Raw Signal [1]: 56169
Z-score [2]: 0.2983

CN1C[C@@H](NS(=O)(=O)N(C)C)C[C@@H]2c3cccc4c3c(cn4C)C[C@H]21 [Mesulergine hydrochloride]
Raw Signal [1]: 53840
Z-score [3]: -0.093

S=C=Nc1cccc(C2(N3CCCCC3)CCCCC2)c1 [Metaphit methanesulfonate]
Raw Signal [7]: 56894
Z-score [8]: 0.4201

CC(C)NCC(O)c1cc(O)cc(O)c1.CC(C)NCC(O)c1cc(O)cc(O)c1.O=S(=O)(O)O (centres unmarked) [Metaproterenol hemisulfate]
Raw Signal [1]: 55094
Z-score [2]: 0.1177

CN1C[C@H](CNC(=O)OCc2ccccc2)C[C@@H]2c3cccc4c3c(cn4C)C[C@H]21 [Metergoline]
Raw Signal [4]: 65696
Z-score [5]: 1.899

CSc1ccc2c(c1)C(N1CCN(C)CC1)Cc1ccccc1S2 (centres unmarked) [Methiothepin mesylate]
Raw Signal [7]: 58558
Z-score [8]: 0.6997

COc1ccccc1CNCCCCCCNCCCCCCCCNCCCCCCNCc1ccccc1OC.Cl.Cl.Cl.Cl [Methoctramine tetrahydrochloride]
Raw Signal [7]: 56889
Z-score [8]: 0.4193

CN(Cc1cnc2nc(N)nc(N)c2n1)c1ccc(C(=O)N[C@@H](CCC(=O)O)C(=O)O)cc1 [Methotrexate]
Raw Signal [7]: 60039
Z-score [8]: 0.3744

COc1ccc(OC)c(C(O)C(C)N)c1 (centres unmarked) [Methoxamine hydrochloride]
Raw Signal [7]: 57572
Z-score [8]: 0.5341

COC(=O)c1cc2c(cn1)[nH]c1ccccc12 [Methyl beta-carboline-3-carboxylate]
Raw Signal [1]: 53830
Z-score [3]: -0.2715

CNC(=O)OCC[N+](C)(C)C [Methylcarbamylcholine chloride]
Raw Signal [7]: 60360
Z-score [8]: 1.003

CC[C@@H](CO)NC(=O)[C@@H]1C=C2c3cccc4[nH]cc(c34)C[C@H]2N(C)C1 [Methylergonovine maleate]
Raw Signal [7]: 56663
Z-score [8]: 0.3813

CC[C@@H](CO)NC(=O)[C@@H]1C=C2c3cccc4c3c(cn4C)C[C@H]2N(C)C1 [Methysergide maleate]
Raw Signal [1]: 55881
Z-score [2]: 0.2499

CCN(CC)CCNC(=O)c1cc(Cl)c(N)cc1OC.Cl [Metoclopramide hydrochloride]
Raw Signal [1]: 53948
Z-score [2]: -0.07486

Cc1ccccc1N1C(=O)c2cc(S(N)(=O)=O)c(Cl)cc2NC1C (centres unmarked) [Metolazone]
Raw Signal [1]: 54501
Z-score [2]: 0.01806

Cc1ccccc1/C=C/C1=NCCN1 [Metrazoline oxalate]
Raw Signal [4]: 51543
Z-score [6]: -0.479

Cc1ccccc1CNc1ncnc2c1ncn2[C@@H]1O[C@H](CO)[C@@H](O)[C@H]1O [Metrifudil]
Raw Signal [1]: 54359
Z-score [2]: -0.005798

CC[C@H](C)C(=O)O[C@H]1CCC=C2C=C[C@H](C)[C@H](CC[C@@H]3C[C@@H](O)CC(=O)O3)[C@H]21 [Mevastatin]
Raw Signal [4]: 50064
Z-score [6]: -0.7275

Cc1cccc(C)c1OCC(C)N.Cl (centres unmarked) [Mexiletene hydrochloride]
Raw Signal [4]: 50431
Z-score [6]: -0.6658

CN1CCN2c3ccccc3Cc3ccccc3C2C1 (centres unmarked) [Mianserin hydrochloride]
Raw Signal [4]: 51451
Z-score [6]: -0.4944

COCC(=O)O[C@]1(CCN(C)CCCc2nc3ccccc3[nH]2)CCc2cc(F)ccc2[C@@H]1C(C)C [Mibefradil dihydrochloride]
Raw Signal [4]: 48952
Z-score [6]: -0.9143

CC#C[C@]1(O)CC[C@H]2[C@@H]3CCC4=CC(=O)CCC4=C3[C@@H](c3ccc(N(C)C)cc3)C[C@@]21C [Mifepristone]
Raw Signal [7]: 60991
Z-score [8]: 1.109

Cc1[nH]c(=O)c(C#N)cc1-c1ccncc1 [Milrinone]
Raw Signal [1]: 53863
Z-score [2]: -0.08914

CN(C)c1ccc(O)c2c1C[C@H]1C[C@H]3[C@H](N(C)C)C(O)=C(C(N)=O)C(=O)[C@@]3(O)C(O)=C1C2=O [Minocycline hydrochloride]
Raw Signal [1]: 55658
Z-score [2]: 0.2125

Nc1cc(N2CCCCC2)nc(N)[n+]1[O-] [Minoxidil]
Raw Signal [1]: 52091
Z-score [3]: -0.3869

O=C1c2c(O)ccc(O)c2C(=O)c2c(NCCNCCO)ccc(NCCNCCO)c21 [Mitoxantrone]
Raw Signal [4]: 48302
Z-score [6]: -1.024

NC(=O)c1ncn([C@@H]2O[C@H](CO)[C@@H](O)[C@H]2O)c1O [Mizoribine]
Raw Signal [4]: 51474
Z-score [6]: -0.4906

CCOC(=O)[N-]c1cn(N2CCOCC2)n[o+]1 [Molsidomine]
Raw Signal [7]: 60839
Z-score [8]: 1.083

CCOC(=O)C1=C(C)NC(=S)NC1c1cccc(O)c1 (centres unmarked) [Monastrol]
Raw Signal [1]: 54262
Z-score [2]: -0.0221

O=c1c(O)c(-c2ccc(O)cc2O)oc2cc(O)cc(O)c12 [Morin]
Raw Signal [4]: 34376
Z-score [6]: -3.363

CC(=O)Oc1cc(C(C)C)c(OCCN(C)C)cc1C [Moxisylyte hydrochloride]
Raw Signal [1]: 54969
Z-score [2]: 0.0967

COc1nc(C)nc(Cl)c1NC1=NCCN1.Cl [Moxonidine hydrochloride]
Raw Signal [1]: 52362
Z-score [3]: -0.3413

Br.NCc1cc(O)no1 [Muscimol hydrobromide]
Raw Signal [1]: 54732
Z-score [2]: -0.08835

Nc1ccc(CCNc2ncnc3c2ncn3[C@@H]2O[C@H](CO)[C@@H](O)[C@H]2O)cc1 [N6-2-(4-Aminophenyl)ethyladenosine]
Raw Signal [4]: 51199
Z-score [6]: -1.183

OC[C@H]1O[C@@H](n2cnc3c(NCCc4ccccc4)ncnc32)[C@H](O)[C@@H]1O [N6-2-Phenylethyladenosine]
Raw Signal [4]: 52095
Z-score [6]: -0.7633

CCNC(=O)[C@H]1O[C@@H](n2cnc3c(NCc4ccccc4)ncnc32)[C@H](O)[C@@H]1O [N6-Benzyl-5 -N-ethylcarboxamidoadenosine]
Raw Signal [1]: 59001
Z-score [2]: 0.1916

OC[C@H]1O[C@@H](n2cnc3c(NC4CCCCC4)ncnc32)[C@H](O)[C@@H]1O [N6-Cyclohexyladenosine]
Raw Signal [7]: 60438
Z-score [8]: 1.07

Cn1cnc2c(NC3CCCC3)ncnc21 [N6-Cyclopentyl-9-methyladenine]
Raw Signal [1]: 52967
Z-score [3]: -0.2397

OC[C@H]1O[C@@H](n2cnc3c(NC4CCCC4)ncnc32)[C@H](O)[C@@H]1O [N6-Cyclopentyladenosine]
Raw Signal [1]: 55487
Z-score [3]: -0.4273

CNc1ncnc2c1ncn2[C@@H]1O[C@H](CO)[C@@H](O)[C@H]1O [N6-Methyladenosine]
Raw Signal [4]: 48943
Z-score [6]: -0.9158

OC[C@H]1O[C@@H](n2cnc3c(Nc4ccccc4)ncnc32)[C@H](O)[C@@H]1O [N6-Phenyladenosine]
Raw Signal [1]: 55025
Z-score [3]: -0.194

CN(C)C(=O)N=NC(=O)N(C)C [N,N,N ,N -Tetramethylazodicarboxamide]
Raw Signal [7]: 57249
Z-score [8]: 0.4228

NCC(=O)NCCC(c1ccccc1)c1ccccc1 [N-(3,3-Diphenylpropyl)glycinamide]
Raw Signal [4]: 66051
Z-score [5]: 2.21

Nc1ccc(N2C(=O)c3ccccc3C2=O)c(Cl)c1 [N-(4-Amino-2-chlorophenyl)phthalimide]
Raw Signal [7]: 61206
Z-score [8]: 0.58

CC(=O)NCCc1c[nH]c2ccc(O)cc12 [N-Acetyl-5-hydroxytryptamine]
Raw Signal [4]: 55051
Z-score [6]: -0.5041

CC(=O)N[C@@H](CS)C(=O)O [N-Acetyl-L-Cysteine]
Raw Signal [7]: 65323
Z-score [8]: 1.305

CC(=O)NCCc1ccc(O)c(O)c1.O [N-Acetyldopamine monohydrate]
Raw Signal [7]: 60782
Z-score [8]: 0.5053
